Residues, ends and D or L forms follow the SMILES beside them.
Biological target: T1, human V1A receptor (Homo sapiens, UniProt P37288)
T1 construct: expressed in transfected cells
Assay: Saturation experiment with RP-LC-ICP-MS (78Se) read-out on CHO cells stably expressing the human V1A receptor
Details: [Se-Se]-AVP 0.05 nM to 80 nM, non-specific with 2000-fold excess of AVP, binding buffer pH 7.4, 4 h at 4°C, 1% TFA dissociation, mean of 2 independent experiments carried out in triplicate, ±SD, read-out: dissociation constant (Kd)
Method: (§1) Assays were performed in triplicate.
as §1

T1 sequence (P37288 whole entry): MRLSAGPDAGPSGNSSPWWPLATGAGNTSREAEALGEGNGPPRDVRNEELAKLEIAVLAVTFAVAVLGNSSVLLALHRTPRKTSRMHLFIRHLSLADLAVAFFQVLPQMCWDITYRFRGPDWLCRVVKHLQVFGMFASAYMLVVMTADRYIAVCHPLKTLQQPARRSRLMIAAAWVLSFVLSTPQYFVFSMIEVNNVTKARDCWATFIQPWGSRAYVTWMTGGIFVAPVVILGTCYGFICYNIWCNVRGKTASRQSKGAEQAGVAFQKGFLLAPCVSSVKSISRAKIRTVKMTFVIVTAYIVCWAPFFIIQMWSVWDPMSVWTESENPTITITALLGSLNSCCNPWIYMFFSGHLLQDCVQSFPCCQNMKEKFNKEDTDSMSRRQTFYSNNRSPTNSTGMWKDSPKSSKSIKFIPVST

SMILES: N=C(N)NCCC[C@H](NC(=O)[C@@H]1CCCN1C(=O)[C@@H]1C[Se][Se]C[C@H](N)C(=O)N[C@@H](Cc2ccc(O)cc2)C(=O)N[C@@H](Cc2ccccc2)C(=O)N[C@@H](CCC(N)=O)C(=O)N[C@@H](CC(N)=O)C(=O)N1)C(=O)NCC(N)=O [[Se-Se]-AVP] (HELM PEPTIDE1{[N[C@@H](C[Se][*:3])C(=O)[*:2]].Y.F.Q.N.[O=C([C@H](C[Se][*:3])N[*:1])[*:2]].P.R.G.[am]}$PEPTIDE1,PEPTIDE1,1:R3-6:R3$$$V2.0)
- Kd: 0.99 ± 0.14 nM

— publication PMC4918930, “Investigation of Elemental Mass Spectrometry in Pharmacology for Peptide Quantitation at Femtomolar Levels” (PLoS ONE, 2016)
